Experimental data reported in patent publication US11759462B2, “Spirocyclic compounds as tryptophan hydroxylase inhibitors” (priority 2013, dated 2023).

Target: T1, Recombinant human TPH1 (MBP tagged) (Homo sapiens, UniProt P17752)
T1 construct: cloning full length human TPH1 cDNA in to a bacterial pMAL-c5E expression vector; made in house; host or cells: E. coli BL21 (DE3)
T1 sequence (P17752 1-444): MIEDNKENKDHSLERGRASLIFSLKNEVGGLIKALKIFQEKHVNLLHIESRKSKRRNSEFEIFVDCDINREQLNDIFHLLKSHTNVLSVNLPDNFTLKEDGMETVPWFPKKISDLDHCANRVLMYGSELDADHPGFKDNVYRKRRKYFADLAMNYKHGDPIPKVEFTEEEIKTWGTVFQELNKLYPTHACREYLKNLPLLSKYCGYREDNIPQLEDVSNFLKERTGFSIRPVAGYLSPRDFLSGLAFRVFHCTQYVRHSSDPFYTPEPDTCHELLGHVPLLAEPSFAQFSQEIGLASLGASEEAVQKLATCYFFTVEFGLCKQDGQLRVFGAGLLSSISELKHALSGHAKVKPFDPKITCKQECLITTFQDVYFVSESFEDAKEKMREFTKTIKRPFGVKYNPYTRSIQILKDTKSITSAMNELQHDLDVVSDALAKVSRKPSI
Assay: TPH1 in vitro inhibition assay (kinetic fluorescence)
Format: biochemical
Settings: read-out: TPH1 Range (TPH1 inhibition IC50)
Summary of the method: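 Final mix: 15 nM MBP-TPH1, 30 μM Trp, 36 μM 6-methyltetrahydropterin, 25 μM ferrous ammonium sulfate, 50 mM MES pH 7.1, 1% DMSO, room temperature.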

SMILES | IC50 [nM]
COc1ccc([C@@H](Oc2cc(N3CCC4(CC3)CN[C@H](C(=O)O)C4)nc(N)n2)C(F)(F)F)c(-n2ccc(C)n2)c1 [Example 10l, (S)-8-(2-amino-6-((R)-2,2,2-trifluoro-1-(4-methoxy-2-(3-methyl-1H-pyrazol-1-yl)phenyl)ethoxy)pyrimidin-4-yl)-2,8-diazaspiro[4.5]decane-3-carboxylic acid] | 50 to 300
Cc1ccn(-c2cc(Br)ccc2[C@@H](Oc2cc(N3CCC4(CC3)CN[C@H](C(=O)O)C4)nc(N)n2)C(F)(F)F)n1 [Example 10m, (S)-8-(2-amino-6-((R)-1-(4-bromo-2-(3-methyl-1H-pyrazol-1-yl)phenyl)-2,2,2-trifluoroethoxy)pyrimidin-4-yl)-2,8-diazaspiro[4.5]decane-3-carboxylic acid] | < 50
Cc1ccn(-c2ccc(Br)cc2[C@@H](Oc2cc(N3CCC4(CC3)CN[C@H](C(=O)O)C4)nc(N)n2)C(F)(F)F)n1 [Example 10n, (S)-8-(2-amino-6-((R)-1-(5-bromo-2-(3-methyl-1H-pyrazol-1-yl)phenyl)-2,2,2-trifluoroethoxy)pyrimidin-4-yl)-2,8-diazaspiro[4.5]decane-3-carboxylic acid] | < 50
Nc1nc(O[C@H](c2ccc(Cl)cc2-n2ccc(C(F)(F)F)n2)C(F)(F)F)cc(N2CCC3(CC2)CN[C@H](C(=O)O)C3)n1 [Example 10p, (S)-8-(2-amino-6-((R)-1-(4-chloro-2-(3-(trifluoromethyl)-1H-pyrazol-1-yl)phenyl)-2,2,2-trifluoroethoxy)pyrimidin-4-yl)-2,8-diazaspiro[4.5]decane-3-carboxylic acid] | 50 to 300
CC(C)(C)c1ccn(-c2cc(Cl)ccc2[C@@H](Oc2cc(N3CCC4(CC3)CN[C@H](C(=O)O)C4)nc(N)n2)C(F)(F)F)n1 [Example 10pa, (S)-8-(2-amino-6-((R)-1-(2-(3-(tert-butyl)-1H-pyrazol-1-yl)-4-chlorophenyl)-2,2,2-trifluoroethoxy)pyrimidin-4-yl)-2,8-diazaspiro[4.5]decane-3-carboxylic acid] | 50 to 300
CC(C)c1ccn(-c2cc(Cl)ccc2[C@@H](Oc2cc(N3CCC4(CC3)CN[C@H](C(=O)O)C4)nc(N)n2)C(F)(F)F)n1 [Example 10q, (S)-8-(2-amino-6-((R)-1-(4-chloro-2-(3-isopropyl-1H-pyrazol-1-yl)phenyl)-2,2,2-trifluoroethoxy)pyrimidin-4-yl)-2,8-diazaspiro[4.5]decane-3-carboxylic acid] | < 50
Nc1nc(O[C@H](c2ccc(Cl)cc2-n2ccc(C3CC3)n2)C(F)(F)F)cc(N2CCC3(CC2)CN[C@H](C(=O)O)C3)n1 [Example 10r, (S)-8-(2-amino-6-((R)-1-(4-chloro-2-(3-cyclopropyl-1H-pyrazol-1-yl)phenyl)-2,2,2-trifluoroethoxy)pyrimidin-4-yl)-2,8-diazaspiro[4.5]decane-3-carboxylic acid] | < 50
CCc1ccc([C@@H](Oc2cc(N3CCC4(CC3)CN[C@H](C(=O)O)C4)nc(N)n2)C(F)(F)F)c(-n2ccc(C)n2)c1 [Example 12a, (S)-8-(2-amino-6-((R)-1-(4-ethyl-2-(3-methyl-H-pyrazol-1-yl)phenyl)-2,2,2-trifluoroethoxy)pyrimidin-4-yl)-2,8-diazaspiro[4.5]decane-3-carboxylic acid] | 50 to 300
Cc1ccn(-c2cc(C(O)CO)ccc2[C@@H](Oc2cc(N3CCC4(CC3)CN[C@H](C(=O)O)C4)nc(N)n2)C(F)(F)F)n1 (stereo partly drawn) [Example 13, (3S)-8-(2-amino-6-((1R)-1-(4-(1,2-dihydroxyethyl)-2-(3-methyl-1H-pyrazol-1-yl)phenyl)-2,2,2-trifluoroethoxy)pyrimidin-4-yl)-2,8-diazaspiro[4.5]decane-3-carboxylic acid] | 50 to 300
Cc1ccn(-c2cc(C#N)ccc2[C@@H](Oc2cc(N3CCC4(CC3)CN[C@H](C(=O)O)C4)nc(N)n2)C(F)(F)F)n1 [Example 14, (S)-8-(2-amino-6-((R)-1-(4-cyano-2-(3-methyl-H-pyrazol-1-yl)phenyl)-2,2,2-trifluoroethoxy)pyrimidin-4-yl)-2,8-diazaspiro[4.5]decane-3-carboxylic acid] | < 50
Cc1ccn(-c2cc(C(N)=O)ccc2[C@@H](Oc2cc(N3CCC4(CC3)CN[C@H](C(=O)O)C4)nc(N)n2)C(F)(F)F)n1 [Example 15, (S)-8-(2-amino-6-((R)-1-(4-carbamoyl-2-(3-methyl-H-pyrazol-1-yl)phenyl)-2,2,2-trifluoroethoxy)pyrimidin-4-yl)-2,8-diazaspiro[4.5]decane-3-carboxylic acid] | 50 to 300
CCOC(=O)c1ccc([C@@H](Oc2cc(N3CCC4(CC3)CN[C@H](C(=O)O)C4)nc(N)n2)C(F)(F)F)c(-n2ccc(C)n2)c1 [Example 17, (S)-8-(2-amino-6-((R)-1-(4-(ethoxycarbonyl)-2-(3-methyl-H-pyrazol-1-yl)phenyl)-2,2,2-trifluoroethoxy)pyrimidin-4-yl)-2,8-diazaspiro[4.5]decane-3-carboxylic acid] | < 50
Cc1ccn(-c2cc(C(=O)OC(C)(C(F)(F)F)C(F)(F)F)ccc2[C@@H](Oc2cc(N3CCC4(CC3)CN[C@H](C(=O)O)C4)nc(N)n2)C(F)(F)F)n1 [Example 18a, (S)-8-(2-amino-6-((R)-2,2,2-trifluoro-1-(4-(((1,1,1,3,3,3-hexafluoro-2-methylpropan-2-yl)oxy)carbonyl)-2-(3-methyl-1H-pyrazol-1-yl)phenyl)ethoxy)pyrimidin-4-yl)-2,8-diazaspiro[4.5]decane-3-carboxylic acid] | 50 to 300
CCCOC(=O)c1ccc([C@@H](Oc2cc(N3CCC4(CC3)CN[C@H](C(=O)O)C4)nc(N)n2)C(F)(F)F)c(-n2ccc(C)n2)c1 [Example 18b, (S)-8-(2-amino-6-((R)-2,2,2-trifluoro-1-(2-(3-methyl-1H-pyrazol-1-yl)-4-(propoxycarbonyl)phenyl)ethoxy)pyrimidin-4-yl)-2,8-diazaspiro[4.5]decane-3-carboxylic acid] | < 50
CCCCOC(=O)c1ccc([C@@H](Oc2cc(N3CCC4(CC3)CN[C@H](C(=O)O)C4)nc(N)n2)C(F)(F)F)c(-n2ccc(C)n2)c1 [Example 18c, (S)-8-(2-amino-6-((R)-1-(4-(butoxycarbonyl)-2-(3-methyl-1H-pyrazol-1-yl)phenyl)-2,2,2-trifluoroethoxy)pyrimidin-4-yl)-2,8-diazaspiro[4.5]decane-3-carboxylic acid] | < 50
Cc1ccn(-c2cc(C(=O)OC(C)(C)C)ccc2[C@@H](Oc2cc(N3CCC4(CC3)CN[C@H](C(=O)O)C4)nc(N)n2)C(F)(F)F)n1 [Example 18d, (S)-8-(2-amino-6-((R)-1-(4-(tert-butoxycarbonyl)-2-(3-methyl-1H-pyrazol-1-yl)phenyl)-2,2,2-trifluoroethoxy)pyrimidin-4-yl)-2,8-diazaspiro[4.5]decane-3-carboxylic acid] | < 50
Cc1ccn(-c2cc(C(=O)OCC(C)C)ccc2[C@@H](Oc2cc(N3CCC4(CC3)CN[C@H](C(=O)O)C4)nc(N)n2)C(F)(F)F)n1 [Example 18e, (S)-8-(2-amino-6-((R)-2,2,2-trifluoro-1-(4-(isobutoxycarbonyl)-2-(3-methyl-1H-pyrazol-1-yl)phenyl)ethoxy)pyrimidin-4-yl)-2,8-diazaspiro[4.5]decane-3-carboxylic acid] | < 50
Cc1ccn(-c2cc(C(=O)OC3CCCC3)ccc2[C@@H](Oc2cc(N3CCC4(CC3)CN[C@H](C(=O)O)C4)nc(N)n2)C(F)(F)F)n1 [Example 18f, (S)-8-(2-amino-6-((R)-1-(4-((cyclopentyloxy)carbonyl)-2-(3-methyl-1H-pyrazol-1-yl)phenyl)-2,2,2-trifluoroethoxy)pyrimidin-4-yl)-2,8-diazaspiro[4.5]decane-3-carboxylic acid] | < 50
C=Cc1ccc(-n2ccc(C)n2)c([C@@H](Oc2cc(N3CCC4(CC3)CN[C@H](C(=O)O)C4)nc(N)n2)C(F)(F)F)c1 [Example 19a, (S)-8-(2-amino-6-((R)-2,2,2-trifluoro-1-(2-(3-methyl-1H-pyrazol-1-yl)-5-vinylphenyl)ethoxy)pyrimidin-4-yl)-2,8-diazaspiro[4.5]decane-3-carboxylic acid] | < 50
C/C=C/c1ccc(-n2ccc(C)n2)c([C@@H](Oc2cc(N3CCC4(CC3)CN[C@H](C(=O)O)C4)nc(N)n2)C(F)(F)F)c1 [Example 19b, (S)-8-(2-amino-6-((R)-2,2,2-trifluoro-1-(2-(3-methyl-1H-pyrazol-1-yl)-5-((E)-prop-1-en-1-yl)phenyl)ethoxy)pyrimidin-4-yl)-2,8-diazaspiro[4.5]decane-3-carboxylic acid] | < 50
CC/C=C/c1ccc(-n2ccc(C)n2)c([C@@H](Oc2cc(N3CCC4(CC3)CN[C@H](C(=O)O)C4)nc(N)n2)C(F)(F)F)c1 [Example 19c, (S)-8-(2-amino-6-((R)-1-(5-((E)-but-1-en-1-yl)-2-(3-methyl-1H-pyrazol-1-yl)phenyl)-2,2,2-trifluoroethoxy)pyrimidin-4-yl)-2,8-diazaspiro[4.5]decane-3-carboxylic acid] | < 50
Cc1ccn(-c2ccc(/C=C/C(=O)O)cc2[C@@H](Oc2cc(N3CCC4(CC3)CN[C@H](C(=O)O)C4)nc(N)n2)C(F)(F)F)n1 [Example 19d, (S)-8-(2-amino-6-((R)-1-(5-((E)-2-carboxyvinyl)-2-(3-methyl-1H-pyrazol-1-yl)phenyl)-2,2,2-trifluoroethoxy)pyrimidin-4-yl)-2,8-diazaspiro[4.5]decane-3-carboxylic acid] | 50 to 300
